ChEMBL document CHEMBL6092192 (J Med Chem, 2024)
Active and inactive are the calls of the source. The calls are words filed in the database; no cut-off is given here.

How the values were obtained:
[1] = system: SW620/AD300; test: Antitumor activity against human SW620/AD300 cells xenografted in male BALB/c nude mouse model assessed as reduction in tumor weight at 100 mg/kg/day, IG measured after 21 days in presence of paclitaxel; format: functional, organism-based; conditions: time 21.0 day
[2] = Half life in 12 hrs fasted Sprague-Dawley rat at 1 mg/kg, iv measured upto 720 mins by HPLC-MS/MS analysis; format: ADME, organism-based; conditions: in vivo
[3] = molecular target: T1, ATP-dependent translocase ABCB1 (Homo sapiens, UniProt P08183); test: Inhibition of ABCB1 in human SW620/AD300 cells assessed as increase in intracellular paclitaxel incubated for 4 hrs by liquid scintillation analysis; format: cell-based; conditions: sw620/ad300, 4 h, at 2 to 4 µM, dose 2-4 µM
[4] = AUC (0 to t) in 12 hrs fasted Sprague-Dawley rat at 10 mg/kg, po measured upto 720 mins by HPLC-MS/MS analysis; format: ADME, organism-based; conditions: in vivo
[5] = Clearance in 12 hrs fasted Sprague-Dawley rat at 1 mg/kg, iv measured upto 720 mins by HPLC-MS/MS analysis; format: ADME, organism-based; conditions: in vivo
[6] = Toxicity in BALB/c nude mouse assessed as mortality at 100 mg/kg/day, IG measured after 21 days in presence of paclitaxel; format: organism-based; conditions: in vivo, po, 504 h, time 21 day
[7] = AUC (0 to t) in 12 hrs fasted Sprague-Dawley rat at 1 mg/kg, iv measured upto 720 mins by HPLC-MS/MS analysis; format: ADME, organism-based; conditions: in vivo
[8] = system: SW-620; test: Cytotoxicity against human SW620 cells assessed as survival rate at 2 uM measured after 72 hrs by MTT assay relative to control; format: functional; conditions: read-out: Survival
[9] = system: CD8-positive T cell; test: Activation of immune response in human CD8-positive T cell assessed as increase in TNF-alpha level at 4 uM by ELISA method; format: functional, cell-based
[10] = Oral bioavailability in 12 hrs fasted Sprague-Dawley rat at 10 mg/kg measured upto 720 mins by HPLC-MS/MS analysis; format: ADME, organism-based; conditions: in vivo
[11] = Toxicity in BALB/c nude mouse xenografted with […] CT26/TAXOL cells assessed as effect on brain at 100 mg/kg/day, IG in presence of paclitaxel measured after 14 days by H and E staining based analysis; format: organism-based; conditions: in vivo, po, 336 h, time 14 day
[12] = Reversal of paclitaxel resistance in HEK293 cells harbouring ABCB1 assessed as reversal fold by measuring ratio of paclitaxel IC50 to paclitaxel IC50 in presence of test compound at 4 uM incubated for 72 hrs by MTT assay; format: functional, Homo sapiens
[13] = system: SW620/AD300; test: Cytotoxicity against multidrug resistant human SW620/AD300 cells assessed as survival rate at 4 uM measured after 72 hrs by MTT assay relative to control; format: functional; conditions: read-out: Survival
[14] = Toxicity in Sprague-Dawley rat assessed as fatality at 250 to 1000 mg/kg, po measured for 14 days administered as single dose; format: organism-based; conditions: in vivo, 336 h, dose 250-1000 mg/kg, time 14 day
[15] = Reversal of paclitaxel resistance in HEK293 cells transfected with pcDNA3.1 assessed as reversal fold by measuring ratio of paclitaxel IC50 to paclitaxel IC50 in presence of test compound at 2 uM incubated for 72 hrs by MTT assay; format: functional, Homo sapiens
[16] = Toxicity in BALB/c nude mouse xenografted with […] CT26/TAXOL cells assessed as effect on liver at 100 mg/kg/day, IG in presence of paclitaxel/anti-PD-1 measured after 14 days by H and E staining based analysis; format: organism-based; conditions: in vivo, po, 336 h, time 14 day
[17] = Toxicity in BALB/c nude mouse xenografted with […] CT26/TAXOL cells assessed as effect on lung at 100 mg/kg/day, IG in presence of paclitaxel measured after 14 days by H and E staining based analysis; format: organism-based; conditions: in vivo, po, 336 h, time 14 day
[18] = AUC (0 to infinity) in 12 hrs fasted Sprague-Dawley rat at 10 mg/kg, po measured upto 720 mins by HPLC-MS/MS analysis; format: ADME, organism-based; conditions: in vivo
[19] = system: KB-C2; test: Cytotoxicity against human KB-C2 cells assessed as survival rate at 5 uM measured after 72 hrs by MTT assay relative to control; format: functional; conditions: read-out: Survival
[20] = system: CD8-positive T cell; test: Activation of immune response in human CD8-positive T cell assessed as increase in perforin level at 4 uM by ELISA method; format: functional, cell-based
[21] = molecular target: T1, ATP-dependent translocase ABCB1; test: Activation of ABCB1 ATPase activity (unknown origin) infected in insect cells at 18.5 uM incubated for 20 mins in presence of Mg-ATP by spectrophotometric analysis; format: cell-based; conditions: insect cell
[22] = AUC (0 to infinity) in 12 hrs fasted Sprague-Dawley rat at 1 mg/kg, iv measured upto 720 mins by HPLC-MS/MS analysis; format: ADME, organism-based; conditions: in vivo
[23] = Toxicity in BALB/c nude mouse xenografted with […] CT26/TAXOL cells assessed as change in body weight at 100 mg/kg/day, IG measured upto 14 days in presence of paclitaxel/anti-PD-1; format: organism-based; conditions: in vivo, po, 336 h, time < 14 day
[24] = system: KB-C2; test: Reversal of paclitaxel resistance in human KB-C2 cells assessed as reversal fold by measuring ratio of paclitaxel IC50 to paclitaxel IC50 in presence of test compound at 2 uM incubated for 72 hrs by MTT assay; format: functional
[25] = Toxicity in BALB/c nude mouse xenografted with […] CT26/TAXOL cells assessed as effect on kidney at 100 mg/kg/day, IG in presence of paclitaxel/anti-PD-1 measured after 14 days by H and E staining based analysis; format: organism-based; conditions: in vivo, po, 336 h, time 14 day
[26] = system: SW-620; test: Reversal of paclitaxel resistance in human SW620 cells assessed as reversal fold by measuring ratio of paclitaxel IC50 to paclitaxel IC50 in presence of test compound at 4 uM incubated for 72 hrs by MTT assay; format: functional
[27] = Toxicity in BALB/c nude mouse xenografted with […] CT26/TAXOL cells assessed as change in body weight at 100 mg/kg/day, IG measured upto 14 days in presence of paclitaxel; format: organism-based; conditions: in vivo, po, 336 h, time < 14 day
[28] = system: KB-C2; test: Reversal of paclitaxel resistance in human KB-C2 cells assessed as reversal fold by measuring ratio of paclitaxel IC50 to paclitaxel IC50 in presence of test compound at 4 uM incubated for 72 hrs by MTT assay; format: functional
[29] = Toxicity in BALB/c nude mouse xenografted with […] CT26/TAXOL cells assessed as effect on kidney at 100 mg/kg/day, IG measured after 14 days by H and E staining based analysis; format: organism-based; conditions: in vivo, po, 336 h, time 14 day
[30] = Toxicity in BALB/c nude mouse xenografted with […] CT26/TAXOL cells assessed as effect on heart at 100 mg/kg/day, IG measured after 14 days by H and E staining based analysis; format: organism-based; conditions: in vivo, po, 336 h, time 14 day
[31] = molecular target: T1, ATP-dependent translocase ABCB1; test: Activation of ABCB1 ATPase activity (unknown origin) infected in insect cells by measuring fold change at upto 40 uM incubated for 20 mins in presence of Mg-ATP by spectrophotometric analysis; conditions: Insect cell, read-out: FC
[32] = Tmax in 12 hrs fasted Sprague-Dawley rat at 1 mg/kg, iv measured upto 720 mins by HPLC-MS/MS analysis; format: ADME, organism-based; conditions: in vivo
[33] = MRT (0 to t) in 12 hrs fasted Sprague-Dawley rat at 10 mg/kg, po measured upto 720 mins by HPLC-MS/MS analysis; format: ADME, organism-based; conditions: in vivo

T1 sequence (P08183 whole entry): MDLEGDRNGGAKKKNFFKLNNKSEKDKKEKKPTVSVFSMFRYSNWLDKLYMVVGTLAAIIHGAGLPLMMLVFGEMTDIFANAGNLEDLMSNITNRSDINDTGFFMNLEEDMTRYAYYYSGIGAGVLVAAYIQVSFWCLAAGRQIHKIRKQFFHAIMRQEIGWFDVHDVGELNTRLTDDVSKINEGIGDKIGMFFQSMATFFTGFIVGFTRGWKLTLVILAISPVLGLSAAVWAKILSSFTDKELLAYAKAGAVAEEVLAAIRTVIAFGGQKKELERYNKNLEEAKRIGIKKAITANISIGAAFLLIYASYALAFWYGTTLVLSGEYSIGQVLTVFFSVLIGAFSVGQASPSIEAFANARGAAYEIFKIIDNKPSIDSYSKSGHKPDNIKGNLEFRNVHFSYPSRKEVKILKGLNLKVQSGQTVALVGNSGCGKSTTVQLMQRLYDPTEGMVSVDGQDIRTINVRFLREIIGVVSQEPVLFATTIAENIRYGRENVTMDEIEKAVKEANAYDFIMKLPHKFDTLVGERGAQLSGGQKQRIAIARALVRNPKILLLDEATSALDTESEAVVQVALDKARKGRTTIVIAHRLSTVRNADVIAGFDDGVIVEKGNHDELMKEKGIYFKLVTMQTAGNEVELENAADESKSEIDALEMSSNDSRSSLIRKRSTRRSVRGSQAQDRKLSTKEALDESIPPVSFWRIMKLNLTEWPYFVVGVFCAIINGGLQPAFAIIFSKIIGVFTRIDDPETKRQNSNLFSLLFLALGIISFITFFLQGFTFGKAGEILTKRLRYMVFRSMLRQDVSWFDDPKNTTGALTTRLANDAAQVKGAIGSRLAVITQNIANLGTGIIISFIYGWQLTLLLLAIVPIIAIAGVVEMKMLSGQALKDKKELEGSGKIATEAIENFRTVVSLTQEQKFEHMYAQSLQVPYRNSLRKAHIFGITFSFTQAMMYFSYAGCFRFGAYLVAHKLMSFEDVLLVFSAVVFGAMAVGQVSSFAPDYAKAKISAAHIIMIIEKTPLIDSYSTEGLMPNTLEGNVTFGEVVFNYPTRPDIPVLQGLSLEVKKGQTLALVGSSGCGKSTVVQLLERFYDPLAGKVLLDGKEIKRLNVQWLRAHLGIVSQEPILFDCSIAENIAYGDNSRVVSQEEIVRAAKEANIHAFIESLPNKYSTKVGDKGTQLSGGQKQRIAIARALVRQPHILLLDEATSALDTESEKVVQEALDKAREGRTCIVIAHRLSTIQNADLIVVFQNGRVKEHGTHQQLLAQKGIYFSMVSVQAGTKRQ

With `O=c1c2c([nH]c3nc(SCc4nc5ccccc5s4)nn13)CCC2` the Activity [1] was “Active”, the half-life [2] was 5.37 h and the “inhibition (INH)” value [3] was “Dose-dependent-effect”. For the same compound, the AUC(0-t) at 12 h [4] was 5740 ng·h/mL, the clearance [5] was 18.3 mL/min/kg and the Activity [6] was “Non-toxic”. For the same compound, the AUC(0-t) at 12 h [7] was 880 ng·h/mL, the viability at 2 µM [8] was 95.9% and the Activity [9] was “Active”. For the same compound, the bioavailability [10] was 63.9%, the Activity [11] was “Non-toxic” and the “Ratio IC50” value [12] was 28.25. For the same compound, the viability at 4 µM [13] was 95.6%, the Activity [14] was “Non-toxic” and the “Ratio IC50” value [15] was 10.9. The Activity [16] was “Non-toxic”, the Activity [17] was “Non-toxic” and the AUC(0-inf) [18] was 5840 ng·h/mL. For the same compound, the viability at 5 µM [19] was 94.4%, the Activity [20] was “Active” and the Activity [21] was “Active”. The AUC(0-inf) [22] was 915 ng·h/mL, the Activity [23] was “Non-toxic” and the “Ratio IC50” value [24] was 106.85. The Activity [25] was “Non-toxic”, the “Ratio IC50” value [26] was 1.06 and the Activity [27] was “Non-toxic”. The “Ratio IC50” value [28] was 443.74, the Activity [29] was “Non-toxic” and the Activity [30] was “Non-toxic”. The fold induction at up to 40 µM [31] was 2.5, the Tmax [32] was 4.98 min and the MRT last at 12 h [33] was 6.87 h.
